{"source": "patent US8092020B2", "about": "(priority 2002, dated 2012)", "key": {"Hemoglobin (Hgb)": {"target": "Hemoglobin (Hgb) (Homo sapiens, UniProt P68871+P69905)", "sequence (P68871 2-147)": "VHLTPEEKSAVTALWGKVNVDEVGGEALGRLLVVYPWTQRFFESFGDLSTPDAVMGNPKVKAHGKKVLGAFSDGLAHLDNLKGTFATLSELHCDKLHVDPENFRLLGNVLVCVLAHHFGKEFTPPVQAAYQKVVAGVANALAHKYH", "sequence (P69905 2-142)": "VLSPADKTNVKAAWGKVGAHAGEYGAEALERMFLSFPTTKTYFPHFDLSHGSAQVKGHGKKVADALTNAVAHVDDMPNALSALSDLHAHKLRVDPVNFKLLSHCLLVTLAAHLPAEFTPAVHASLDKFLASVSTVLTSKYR", "details": "cited from earlier work"}, "Sprague-Dawley rat [1]": {"tested_on": "Sprague-Dawley rat", "details": "in vivo"}, "Sprague-Dawley rat [2]": {"tested_on": "Sprague-Dawley rat", "details": "in vivo, ip"}, "Sprague-Dawley rat [3]": {"tested_on": "Sprague-Dawley rat", "details": "in vivo, ip", "remark": "listed apart in the source"}}, "data": [{"compound": "[C-]#[O+]", "note": "[CO, Carbon monoxide]", "values": [{"measurement": "affinity of Hgb for CO relative to that for oxygen", "setting": "Hemoglobin (Hgb)", "result": "200-250 times greater"}, {"measurement": "concentration causing significant changes in both arterial and venous coloration", "setting": "Sprague-Dawley rat [1]", "result": "≥ 500", "unit": "ppm"}, {"measurement": "extrapolated EC50 for fundal artery coloration changes", "setting": "Sprague-Dawley rat [1]", "result": "289±37", "unit": "ppm"}, {"measurement": "lowest level with statistically significant arterial coloration changes (p<0.05)", "setting": "Sprague-Dawley rat [1]", "result": 250, "unit": "ppm"}, {"measurement": "maximal observed change in arterial coloration in all animals", "setting": "Sprague-Dawley rat [1]", "result": 38.5, "unit": "%"}, {"measurement": "near maximal change in arterial coloration in animals which did not expire", "setting": "Sprague-Dawley rat [1]", "result": 92.3, "unit": "%"}]}, {"compound": "botulinum toxin", "values": [{"measurement": "time to animal expiration post-injection", "setting": "Sprague-Dawley rat [2]", "result": "at least 14 hours"}, {"measurement": "lowest dose with statistically significant decreases in the pupillary light reflex (p<0.05)", "setting": "Sprague-Dawley rat [3]", "result": "1e-05", "unit": "µg/kg"}]}]}
